Earlier results in patent publication US20050002974A1, “Itch-relieving cosmetic or dermatological preparation” (Beiersdorf AG, priority 2002, published 2005).

How the values were obtained:
[1] = rubbed into the skin
[2] = used in aqueous solutions

Compound | feel on the skin [1] | local anesthetic properties [2]
CC1CCC(C(C)C)C(O)C1 (centres unmarked) [menthol, Menthol] | pleasant cooling feel | 
polyethylene glycol (9) monododecyl ether [polidocanol] |  | strong local anesthetic properties
